Test system: gastrin mRNA
Assay: Gastrin mRNA decrease by gastrin siRNA si286
Type: cell-based

GUGCUGAGGAUGAGAACUA (listed as RNA, chemistry not given here) [si286]
decrease of gastrin mRNA: 90%

— US11696922B2, “Nanoparticle to target cancer” (Georgetown University, priority 2016, dated 2023)
